Source: US20090197899A1, “3-(Dihydro-1H-pyrazolo[4,3-d]pyrimidin-5-yl)-4-propoxybenzenesulfonamide Derivatives and Methods of Use” (Concert Pharmaceuticals Inc., priority 2006, published 2009)

Assay: Metabolic stability of test compounds using human liver microsomes
Type: in vitro ADME
Settings: for differentiation of t1/2 (longer) as compared to udenafil: human liver microsomes, assay conditions 0.5 mg/mL, 1 µM test compd; for half-life at 1 µM: pooled human liver microsomes, in vitro t1/2, 0.5 mg/mL human liver microsomes, 1 μM test compound, 2 mM NADPH, pH 7.4, 37° C., experiment run an additional three times, read-out: Avg t1/2 (min) ± SD
Procedure: Determination of Metabolic Stability of Test Compounds using Human Liver Microsomes. The metabolic stability of compounds of the invention was tested using pooled liver microsomal incubations. Full scan LC-MS analysis was then performed to detect major metabolites. Samples of the test compounds, exposed to pooled human liver microsomes, were analyzed using HPLC-MS (or MS/MS) detection. For determining metabolic stability, multiple reaction monitoring (MRM) was used to measure the disappearance of the test compounds. For metabolite detection, Q1 full scans were used as survey scans to detect the major metabolites.
Experimental Procedures. Human liver microsomes (“HLM”; 20 mg/mL) were obtained from Xenotech, LLC (Lenexa, Kans.). β-nicotinamide adenine dinucleotide phosphate, reduced form (NADPH), magnesium chloride (MgCl2), and dimethyl sulfoxide (DMSO) were purchased from Sigma-Aldrich.
Stock solutions (7.5 mM) of Compounds 100, 103, 108 and 210 and udenafil were prepared in DMSO. The 7.5 mM stock solutions were diluted to 50 μM in acetonitrile (ACN). The 20 mg/mL human liver microsomes were diluted to 0.625 mg/mL in 0.1 M potassium phosphate buffer, pH 7.4, containing 3 mM MgCl2. The diluted microsomes (375 μL) were added to wells of a 96-well deep-well polypropylene plate in triplicate. Ten μL of the 50 μM test compound solution was added to the microsomes and the mixture was pre-warmed for 10 minutes. Reactions were initiated by addition of 125 μL of pre-warmed NADPH solution (8 mM NADPH in 0.1M potassium phosphate buffer, pH 7.4, containing 3 mM MgCl2). […] The reaction mixtures were incubated at 37° C., and 50 μL aliquots were removed at 0, 5, 10, 20, and 30 minutes and added to shallow-well 96-well plates which contained […] of ice-cold ACN with internal standard to stop the reactions. The plates were stored at 4° C. for 20 minutes after which […] of water was added to the wells of the plate before centrifugation to pellet precipitated proteins. Supernatants were transferred to another 96-well plate and analyzed for amounts of parent remaining by LC-MS/MS using an Applied Bio-systems API 4000 mass spectrometer.
The in vitro t1/2s for test compounds were calculated from the slopes of the linear regression of % parent remaining (ln) vs incubation time relationship using the following formula:
in vitro t1/2=0.693/k, where k=−[slope of linear regression of % parent remaining(ln) vs incubation time]. Data analysis was performed using Microsoft Excel Software.

Structure (SMILES) | differentiation of t1/2 (longer) as compared to udenafil | half-life at 1 µM
[2H]C([2H])([2H])n1nc(CCC)c2nc(-c3cc(S(=O)(=O)NCCC4CCCN4C)ccc3OCCC)[nH]c(=O)c21 (stereo not shown) [Compound 108] | – | 36.2 ± 1.5 min
[2H]C([2H])(CC1CCCN1C)NS(=O)(=O)c1ccc(OC([2H])([2H])C([2H])([2H])C([2H])([2H])[2H])c(-c2nc3c(CC([2H])([2H])C([2H])([2H])[2H])nn(C([2H])([2H])[2H])c3c(=O)[nH]2)c1 (stereo not shown) [Compound 210, 3-(1-(Methyl-d3)-7-oxo-3-(2,2,3,3,3-d5-propyl)-6,7-dihydro-1H-pyrazolo[4,3-d]pyrimidin-5-yl)-N-(2-(1-methylpyrrolidin-2-yl)-1,1-d2-ethyl)-4-(propoxy-d7)-benzenesulfonamide] | ~20% | 42.4 ± 3.74 min
CCCOc1ccc(S(=O)(=O)NCCC2CCCN2C)cc1-c1nc2c(CCC)nn(C)c2c(=O)[nH]1 (stereo not shown) [Udenafil, 3-(1-methyl-7-oxo-3-propyl-6,7-dihydro-1H-pyrazolo[4,3-d]pyrimidin-5-yl)-N-[2-(1-methylpyrrolidin-2-yl)ethyl]-4-propoxybenzenesulfonamide, reference compound] | – | 33.6 ± 2.2 min

Now from value to compound:

differentiation of t1/2 (longer) as compared to udenafil | half-life at 1 µM | Structure (SMILES)
~20% | 41.3 ± 1.5 min | [2H]C([2H])(CC1CCCN1C)NS(=O)(=O)c1ccc(OCCC)c(-c2nc3c(CCC)nn(C([2H])([2H])[2H])c3c(=O)[nH]2)c1 (stereo not shown) [Compound 100]
– | 37.2 ± 1.8 min | [2H]C([2H])(CC1CCCN1C)NS(=O)(=O)c1ccc(OCCC)c(-c2nc3c(CCC)nn(C)c3c(=O)[nH]2)c1 (stereo not shown) [Compound 103]
